Earlier results, collected in patent publication US20220009914A1, “Analogs of Nitrofuran Antibiotics to Combat Resistance” (The Trustees of Indiana University, priority 2020, published 2022).

How the values were obtained:
[1] = system: methicillin-resistant S. aureus; details: previously found; read-out: EC50 proliferation of methicillin-resistant S. aureus; cited from earlier work
E. coli GroEL/ES = target: T1, E. coli GroEL/ES (Escherichia coli, UniProt P0A6F5); details: read-out: IC50 GroEL/ES-mediated refolding of denatured malate dehydrogenase; previously found; cited from earlier work
T1 construct: made in house; host or cells: GroEL in NEB 5-alpha E. coli; GroES in E. coli BL21 (DE3)

SM101 E. coli = details: previously found; read-out: EC50 proliferation of SM101 E. coli; cited from earlier work
B. subtilis = details: previously found; read-out: EC50 proliferation of B. subtilis; cited from earlier work

T1 sequence (P0A6F5 2-548): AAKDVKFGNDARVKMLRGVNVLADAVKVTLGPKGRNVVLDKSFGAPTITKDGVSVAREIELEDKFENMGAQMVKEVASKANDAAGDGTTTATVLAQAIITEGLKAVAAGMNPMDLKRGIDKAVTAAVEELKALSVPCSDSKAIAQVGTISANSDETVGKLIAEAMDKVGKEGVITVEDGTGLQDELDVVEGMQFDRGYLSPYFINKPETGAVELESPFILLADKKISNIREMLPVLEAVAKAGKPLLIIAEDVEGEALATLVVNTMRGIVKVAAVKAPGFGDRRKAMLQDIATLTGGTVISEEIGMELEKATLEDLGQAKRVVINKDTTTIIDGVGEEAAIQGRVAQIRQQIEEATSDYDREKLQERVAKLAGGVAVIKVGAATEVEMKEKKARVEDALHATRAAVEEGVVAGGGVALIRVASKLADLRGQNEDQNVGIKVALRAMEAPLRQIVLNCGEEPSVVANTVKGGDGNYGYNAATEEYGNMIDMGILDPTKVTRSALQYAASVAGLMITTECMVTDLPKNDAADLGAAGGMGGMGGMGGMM

COc1ccc(C(=O)N/N=C/c2ccc(O)c3ncccc23)cc1 [Compound 1, N′-((8-hydroxyquinolin-5-yl)methylene)-4-methoxybenzohydrazide]
EC50 [1]: 56 µM | IC50 (E. coli GroEL/ES): 31 µM | EC50 (SM101 E. coli): 19 µM | EC50 (B. subtilis): 83 µM
